Experimental data published in patent publication US20210008069A1, “THERAPEUTIC AGENT FOR INFLAMMATORY BOWEL DISEASE” (DAIICHI SANKYO COMPANY, LIMITED, priority 2018, published 2021).

System: DSS-induced colitis model
Test: Efficacy in model of dextran sulfate sodium-induced colitis
Format: in vivo, C57BL/6J mice
Procedure: A colitis model was prepared by allowing 7-week-old male C57BL/6J mice to freely drink a 1.5% aqueous solution of dextran sulfate sodium (hereinafter, DSS) dissolved in pure water purified through a Milli-Q (registered trademark, Merck Millipore) filter (hereinafter, referred to as Milli-Q water). For the control group, only Milli-Q water was administered. Simultaneously with the start of administration of DSS in drinking water, feed prepared by mixing Compound A (0.01%, 0.03%) with powdered FR-2 was administered to the feed administered group. For the vehicle group with feeding, and the control group, to which no DSS was administered, only powdered FR-2 was administered. The day on which the administration of DSS in drinking water and the administration of the compound were started was designated as Day 1, and the administration was continued until Day 8.
Control group: Milli-Q water, FR-2 (N=10) Vehicle group: 1.5% DSS solution, FR-2 (N=10) Compound A 0.01% group: 1.5% DSS solution, FR-2 mixed with 0.01% Compound A (N=10) Compound A 0.03% group: 1.5% DSS solution, FR-2 mixed with 0.03% Compound A (N=10)
All animals were weighed in the morning from Day 1 to Day 8. On Day 8, the abdomen was opened under isoflurane anesthesia, blood was collected from the abdominal vein by an untreated syringe, the duodenum, large intestine, rectum, and anus were removed, and the length of the removed large intestine was measured with an electric caliper. The large intestine was cut open to observe the stool properties and score the degree of diarrhea.

[1] = 0.03% Compound A in feed, Day 1 to Day 8, 1.5% DSS in drinking water, compared with negative control

For Cc1nc(CC2CCN(c3ccc(-c4ccc(C[C@H](C)O)cc4)cc3)CC2)nc(C(=O)NCC(=O)O)c1O [Compound A, [({5-hydroxy-2-[(1-{4′-[(2S)-2-hydroxypropyl]biphenyl-4-yl}piperidin-4-yl)methyl]-6-methylpyrimidin-4-yl}carbonyl)amino]acetic acid], the “Inhibitory effect on intestinal length shortening (intestinal tract length on Day 8)” value [1] was “significant inhibitory effect on intestinal length shortening”, the “Inhibitory effect on weight loss (amount of change in body weight on Day 8)” value [1] was “significant inhibitory effect on weight loss” and the “Diarrhea score on Day 8 (stool properties)” value (compound-administered group (0.01%, 0.03% in feed), 1.5% DSS, score 0-3 per Table 1, compared with negative control) was “tended to have improved stool properties”. For the same compound, the “Effect on the clinical condition in DSS-induced colitis model” value (overall conclusion, mice, administration in feed Day 1 to Day 8) was “improving effect on the clinical condition”.
